Measurements reported in patent US20250228901A1, “COMPOSITION FOR PREVENTING, ALLEVIATING OR TREATING INFLAMMATORY SKIN DISEASES, COMPRISING CUTIBACTERIUM SP. STRAIN” (CJ Bioscience, Inc., priority 2021, published 2025).

Columns and labels:
[1] = tested on: mice in which rosacea is induced; assay: Rosacea animal model induced by LL37 peptide; type: in vivo, BALB/c mice; conditions: for Dermal inflammation (histopathological evaluation score) / Epithelial hyperplasia (histopathological evaluation score): H&E staining of LL37-administered skin, culture products 150 μl i.p. x3, doxycycline 1 mg/kg x3, LL37 = rosacea induction only; for Total (histopathological evaluation score): sum of epithelial hyperplasia and dermal inflammation scores
Procedure: For the present animal effectiveness test, 32 5-week-old female BALB/c mice were purchased from Orient Bio company, and brought into a breeding room with a 12-hour artificial photoperiod, and acclimatized for one week, and then used in the experiment.
To make a rosacea animal model, hair on the mice's back area was removed using a depilator and hair removal cream. In 24 hours after depilation, to induce rosacea lesions, LL37 peptide (Peptron, Co., Ltd) of 320 μM was under intradermal injection using an insulin syringe by 50 μl. […] Doxycycline, which is one of conventional rosacea therapies, was peritoneally administered by 1 mg/kg once a day, for 3 days (total 3 times).
After 24 hours of the last strain culture product administration, the size (area) of erythema was measured using a caliper, and the animals were euthanized using CO2 gas, and then the lesion area was taken as a photograph and the degree of the erythema was observed by naked eyes and the tissue photographs and the area of the inflammation area were shown in FIG. 14a and FIG. 14b as graphs.

Raw264.7 macrophages = assay: Inflammation regulation by living cells co-cultured with Raw264.7 macrophages, IL-6 and IL-10 ELISA; type: cell-based; conditions: living cells co-cultured 1:1 with macrophages, 24 hours; compared to the B. fragilis strain
Procedure: The secured living cells and immunocytes (Raw264.7 macrophages) were co-cultured at the same ratio (1:1) of 5×10^4/well, respectively, in a 96 well plate for 24 hours, and then the inflammation regulation efficacy of the strains was confirmed. As a control group, a B. fragilis strain known as an inflammation alleviating strain was used. The secreted amounts of the inflammatory cytokine (IL-6) and anti-inflammatory cytokine (IL-10) secreted from the macrophages were measured by ELISA, and then values thereof were calculated at a ratio of IL-10/IL-6 and they were shown in FIG. 11.

Row | Compound | Dermal inflammation (histopathological evaluation score) [1] | Epithelial hyperplasia (histopathological evaluation score) [1] | Total (histopathological evaluation score) [1] | secreted amount of the anti-inflammatory cytokine (IL-10) (Raw264.7 macrophages) | secreted amount of the inflammatory cytokine (IL-6) (Raw264.7 macrophages)
1 | C[C@H]1c2cccc(O)c2C(=O)C2=C(O)[C@]3(O)C(=O)C(C(N)=O)=C(O)[C@@H](N(C)C)[C@@H]3[C@@H](O)[C@@H]21 [doxycycline] | 2.4 | 1.2 | 3.6 | – | –
2 | Cutibacterium acnes CJRS-10651 | – | – | – | promoted | reduced
3 | Cutibacterium acnes CJRS-10652 | – | – | – | promoted | reduced
4 | Cutibacterium acnes CJRS-10653 | – | – | – | promoted | reduced
5 | Cutibacterium acnes CJRS-10654 | – | – | – | promoted | reduced
6 | Cutibacterium acnes CJRS-10655 | – | – | – | promoted | reduced
7 | Cutibacterium acnes CJRS-10656 | – | – | – | promoted | reduced
8 | LL37 | 2.5 | 2.75 | 5.25 | – | –
